# pKd: −log10 of the molar value. Values joined by “and” are separate entries in the source; they are usually repeats but may differ in a detail not shown here. Identical values can stand only once.
# Key:
# anti-thrombin III = anti-thrombin III (Homo sapiens, UniProt P01008); details: cited from earlier work
# [1] = tested on: BxPC-3 Human Pancreas Tumor Xenograft; test: BxPC-3 human pancreas tumor xenograft model: tumor weight and tumor growth inhibition; type: in vivo, mouse; details: for Day 26 Tumor Weight: mean ± Std Err, treatment administered until Day 26
# Protocol: Compounds tested in the experiment were as follows. […] A concentration of 4.8 mg/ml was formulated to deliver a 24 mg/kg dose at a 5 ml/kg dose volume when administered subcutaneously. […] Nab-paclitaxel was manufactured by Abraxis BioScience LLC (Bridgewater, N.J.) and diluted in a 0.9% NaCl solution to a concentration of 1.5 mg/ml to deliver 15 mg/kg, in a 10 ml/kg dose volume. All standard agent preparations were made fresh prior to their administration.
# BxPC-3 cells were obtained and prepared as follows. The BxPC-3 pancreas tumor cell line was received from American Type Culture Collection (ATCC, Manassas, Va.). Cultures were maintained in RPMI 1640 medium (Hyclone, Logan, Utah) supplemented with 5% fetal bovine serum. The cells were housed in a 5% CO2 atmosphere. The cultures were expanded in tissue culture flasks at a 1:3 split ratio until a sufficient amount of cells were harvested.
# (§1) All experiments were conducted on female athymic nude mice (Hsd:Athymic Nude-Foxn1nu) supplied by Harlan (Indianapolis, Ind.). Mice were received at four weeks of age, 12-15 grams in weight, and were acclimated for seven days prior to handling. The mice were housed in microisolator cages (Lab Products, Seaford, Del.) and maintained under specific pathogen-free conditions. All procedures were carried out under appropriate institutional guidelines for animal care.
# BxPC-3 Human Pancreas Tumor Xenograft Model: Female athymic nude mice per treatment condition were inoculated subcutaneously in the right flank with 0.1 ml of a 50% RPMI 1640/50% Matrigel™ (BD Biosciences, Bedford, Mass.) mixture containing a suspension of BxPC-3 tumor cells (approximately 5×10^6 cells/mouse).
# (§2) Seven days following inoculation, tumors were measured using calipers and tumor weight was calculated using the animal study management software, Study Director V.1.7.54 k (Study Log). See Britten C D, et al. Enhanced antitumor activity of 6-hydroxymethylacylfulvene in combination with irinotecan and 5-fluorouracil in the HT29 human colon tumor xenograft model. Cancer Res 59:1049-1053, 1999. […] Body weights were recorded when the mice were randomized and were taken twice weekly thereafter in conjunction with tumor measurements, on each of Days 1, 4, 8, 11, 15, 18, 22, 26, 30, 33, and 36.
# (§3) The study was terminated when the vehicle control reached an endpoint of 1500 mg, on Day 36.
# Mean tumor growth inhibition (TGI) was calculated utilizing Formula A below (deaths were not included in the TGI calculations).
# All statistical analyses in the xenograft study were performed with GraphPad Prism® v4 software.
# [2] = Body weight, deaths and clinical observations in the BxPC-3 xenograft study; details: for Starting Weight: baseline body weight, female athymic nude mice, BxPC-3 xenograft study
# Protocol: as §1, §2, §3
# [3] = ANOVA with Tukey's Multiple Comparison Test
# [4] = Day 26, group mean, dosing per Table 1
# [5] = total deaths on or before Day 26, N = 10 per group
# Chain of anti-thrombin III (P01008 33-464, species assumed): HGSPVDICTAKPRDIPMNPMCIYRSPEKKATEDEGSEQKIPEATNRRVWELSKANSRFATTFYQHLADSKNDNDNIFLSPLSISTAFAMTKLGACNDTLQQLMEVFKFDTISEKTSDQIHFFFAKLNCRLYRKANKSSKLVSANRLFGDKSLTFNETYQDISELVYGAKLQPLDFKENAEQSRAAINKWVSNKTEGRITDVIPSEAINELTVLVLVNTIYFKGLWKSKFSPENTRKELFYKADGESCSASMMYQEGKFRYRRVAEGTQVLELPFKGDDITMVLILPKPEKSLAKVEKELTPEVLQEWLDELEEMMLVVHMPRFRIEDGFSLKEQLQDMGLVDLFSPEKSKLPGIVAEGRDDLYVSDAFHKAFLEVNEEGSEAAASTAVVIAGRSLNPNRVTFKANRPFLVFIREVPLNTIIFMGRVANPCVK
molecule,measurement,setting,value
heparin,pKd,anti-thrombin III,5.81
same,Kd for anti-thrombin III,anti-thrombin III,22 µg/mL
O=C1[O][Pt]2([NH][C@@H]3CCCC[C@H]3[NH]2)[O]C1=O [Oxaliplatin],Difference in tumor weight on Day 26 compared to vehicle control,[1]; [3],No significant difference
same,"Mean tumor weight, Day 26",[1]; [4],635.0 mg
same,Day 26 Tumor Weight,[1]; Day 26,635.0 ± 52.3 mg
same,Day 26 % TGI,"[1]; Day 26 vs Day 1, relative to vehicle control (Group 1), deaths not included",8.0% and 8.0 (10/10) %
same,Day 1 Average Weight,[2],20.82 g
same,Day 4 % Weight Loss or Gain,"[2]; Day 4, vs starting weight",−2.02%
same,Day 8 % Weight Loss or Gain,"[2]; Day 8, vs starting weight",−0.82%
same,Day 11 Average Weight,[2],20.12 g
same,Day 15 Average Weight,[2],20.81 g
same,Day 15 % Weight Loss or Gain,"[2]; Day 15, vs starting weight",−0.05%
same,Day 18 % Weight Loss or Gain,"[2]; Day 18, vs starting weight",−1.78%
same,Starting Weight,[2],20.82 g
same,Day bruising of the tails was first observed,"[2]; mouse, in vivo",11 days
same,Mice demonstrating bruising on the tails or abdomen (site of injection),[2]; of ten mice,One mouse
same,Deaths,[2]; [5],0
Nc1ccn([C@@H]2O[C@H](CO)[C@@H](O)C2(F)F)c(=O)n1 [Gemcitabine],Difference in tumor weight on Day 26 compared to vehicle control,[1]; [3],No significant difference
same,Difference in tumor weight on Day 36 compared to vehicle control,[1]; [3],No significant difference
same,"Mean tumor weight, Day 1","[1]; Day 1 (randomization), group mean, dosing per Table 1",124.3 mg
same,"Median tumor weight, Day 1","[1]; Day 1 (randomization), group median, dosing per Table 1",121.1 mg
same,"Tumor weight, individual mouse, Day 1","[1]; Day 1 (randomization), individual mouse, dosing per Table 1 (ODSH 24, oxaliplatin 10, gemcitabine 80, nab-paclitaxel 15 mg/kg)",132 mg and 139 mg and 126 mg and 104 mg and 107 mg and 111 mg and 116 mg and 166 mg and 146 mg and 96 mg
same,"Mean tumor weight, Day 4","[1]; Day 4, group mean, dosing per Table 1",152.5 mg
same,"Median tumor weight, Day 4","[1]; Day 4, group median, dosing per Table 1",140.2 mg
same,"Tumor weight, individual mouse, Day 4","[1]; Day 4, individual mouse, dosing per Table 1",189 mg and 214 mg and 126 mg and 122 mg and 131 mg and 133 mg and 146 mg and 176 mg and 155 mg and 135 mg
same,"Mean tumor weight, Day 8","[1]; Day 8, group mean, dosing per Table 1",162.2 mg
same,"Median tumor weight, Day 8","[1]; Day 8, group median, dosing per Table 1",147.4 mg
same,"Tumor weight, individual mouse, Day 8","[1]; Day 8, individual mouse, dosing per Table 1",193 mg and 282 mg and 129 mg and 130 mg and 125 mg and 161 mg and 175 mg and 180 mg and 134 mg
same,"Mean tumor weight, Day 11","[1]; Day 11, group mean, dosing per Table 1",198.2 mg
same,"Median tumor weight, Day 11","[1]; Day 11, group median, dosing per Table 1",191.0 mg
same,"Tumor weight, individual mouse, Day 11","[1]; Day 11, individual mouse, dosing per Table 1",235 mg and 328 mg and 146 mg and 145 mg and 119 mg and 150 mg and 202 mg and 242 mg and 234 mg and 180 mg
same,"Mean tumor weight, Day 15","[1]; Day 15, group mean, dosing per Table 1",263.8 mg
same,"Median tumor weight, Day 15","[1]; Day 15, group median, dosing per Table 1",259.2 mg
same,"Tumor weight, individual mouse, Day 15","[1]; Day 15, individual mouse, dosing per Table 1",319 mg and 375 mg and 211 mg and 218 mg and 181 mg and 228 mg and 245 mg and 288 mg and 300 mg and 274 mg
same,"Mean tumor weight, Day 18","[1]; Day 18, group mean, dosing per Table 1",332.1 mg
same,"Median tumor weight, Day 18","[1]; Day 18, group median, dosing per Table 1",340.1 mg
same,"Tumor weight, individual mouse, Day 18","[1]; Day 18, individual mouse, dosing per Table 1",413 mg and 379 mg and 258 mg and 267 mg and 224 mg and 269 mg and 441 mg and 376 mg and 389 mg and 304 mg
same,"Mean tumor weight, Day 22","[1]; Day 22, group mean, dosing per Table 1",459.4 mg
same,"Median tumor weight, Day 22","[1]; Day 22, group median, dosing per Table 1",451.9 mg
same,"Tumor weight, individual mouse, Day 22","[1]; Day 22, individual mouse, dosing per Table 1",621 mg and 514 mg and 372 mg and 400 mg and 350 mg and 332 mg and 592 mg and 509 mg and 500 mg and 404 mg
same,"Mean tumor weight, Day 26",[1]; [4],594.7 mg
same,"Median tumor weight, Day 26","[1]; Day 26, group median, dosing per Table 1",605.8 mg
same,"Tumor weight, individual mouse, Day 26","[1]; Day 26, individual mouse, dosing per Table 1",797 mg and 739 mg and 468 mg and 534 mg and 431 mg and 389 mg and 730 mg and 628 mg and 647 mg and 583 mg
same,Day 26 Tumor Weight,[1]; Day 26,594.7 ± 43.8 mg
same,"Mean tumor weight, Day 30","[1]; Day 30, group mean of surviving mice, dosing per Table 1",874.3 mg
same,"Median tumor weight, Day 30","[1]; Day 30, group median, dosing per Table 1",858.0 mg
same,"Tumor weight, individual mouse, Day 30","[1]; Day 30, individual mouse, dosing per Table 1","1,121 mg and 1,008 mg and 674 mg and 860 mg and 667 mg and 589 mg and 1,150 mg and 856 mg and 992 mg and 826 mg"
same,"Mean tumor weight, Day 33","[1]; Day 33, group mean of surviving mice, dosing per Table 1","1,044.2 mg"
same,"Median tumor weight, Day 33","[1]; Day 33, group median, dosing per Table 1","1,033.3 mg"
same,"Tumor weight, individual mouse, Day 33","[1]; Day 33, individual mouse, dosing per Table 1","1,367 mg and 1,132 mg and 878 mg and 1,036 mg and 936 mg and 624 mg and 1,275 mg and 1,030 mg and 1,158 mg and 1,008 mg"
same,Day 36 Tumor Weight,"[1]; Day 36, treatment administered until Day 35",1288.8 ± 74.3 mg
same,"Median tumor weight, Day 36","[1]; Day 36, group median, dosing per Table 1","1,306.7 mg"
same,"Tumor weight, individual mouse, Day 36","[1]; Day 36, individual mouse, dosing per Table 1","1,573 mg and 1,368 mg and 963 mg and 1,347 mg and 1,106 mg and 923 mg and 1,596 mg and 1,482 mg and 1,267 mg and 1,265 mg"
same,Day 36 % TGI,"[1]; Day 36 vs Day 1, relative to vehicle control (Group 1), deaths not included",16.8%
same,Day 1 Average Weight,[2],22.48 g
same,Day 4 Average Weight,[2]; Day 4,21.76 g
same,Day 8 Average Weight,[2]; Day 8,20.91 g
same,Day 11 Average Weight,[2],20.52 g
same,Day 15 Average Weight,[2],21.70 g
same,Day 18 Average Weight,[2]; Day 18,23.15 g
same,Day 22 % Weight Loss or Gain,"[2]; Day 22, vs starting weight",8.59%
same,Day 26 Average Weight,[2]; Table 13 Day 26,24.21 g
same,Day 26 % Weight Loss or Gain,"[2]; Table 13 Day 26, vs starting weight",7.70%
same,Starting Weight,[2],22.48 g
same,Maximum weight loss,[2]; body weight of mice,8.7%
same,Day 4 % Weight Loss or Gain,"[2]; mouse, in vivo",−3.20%
same,Day 8 % Weight Loss or Gain,"[2]; mouse, in vivo",−6.98%
same,Day 11 % Weight Loss or Gain,"[2]; mouse, in vivo",−8.72%
same,Day 15 % Weight Loss or Gain,"[2]; mouse, in vivo",−3.47%
same,Day 18 % Weight Loss or Gain,"[2]; mouse, in vivo",2.98%
same,Day 22 % Weight Loss or Gain,"[2]; mouse, in vivo",7.74%
same,Day 22 Average Weight,"[2]; mouse, in vivo",24.22 g
same,Day 26 % Weight Loss or Gain,"[2]; mouse, in vivo",7.96%
same,Day 26 Average Weight,"[2]; mouse, in vivo",24.27 g
same,Day 30 % Weight Loss or Gain,"[2]; mouse, in vivo",7.61%
same,Day by which the mice recovered their weight,"[2]; mouse, in vivo",≤ 18 days
same,Day on which maximum weight loss was reached,"[2]; mouse, in vivo",11 days
same,Deaths,[2]; [5],0
same,Deaths,"[2]; total deaths on or before Day 36, n = 10 per group",0

# Source: patent publication US20120196828A1, “SENSITIZATION OF CANCER CELLS TO TREATMENT” (priority 2011, published 2012)
